“And” between values parts separate entries of the source, which are not always exact repeats. Identical values can stand only once.
What was measured:
[1] = tested on: fibrin-related adhesions between the stomach and the liver, the intestines and the omentum; assay: Acetic acid injury to the serosal surface of the rat stomach: formation of adhesions; type: in vivo; details: for Adherences score: day 7
Experimental: The serosal surface of the stomach of an adult anaesthetised rat was exposed in an area of 7 mm diameter to 80% acetic acid over 60 seconds. After rinsing with buffered saline solution, an osmotic minipump (Alza 2001, volume about 220 μL; pumping rate about 1 μL/h; Alza Corp.; Palo Alto, Calif., USA; prefilled with a solution of the thrombin inhibitor melagatran, 2-100 μg/mL) was implanted into the peritoneal cavity, with the outlet of the pump kept open, and delivered its content into the abdominal cavity. The wounded area was covered by a chitosan membrane or, in an alternative experiment, a gel, having a diameter several millimeters larger than that of the injured area.
The serosal surface of the stomach of an adult, anaesthetised rat was exposed in an area of 7 mm diameter to 80% acetic acid over 60 seconds. After rinsing with buffered saline, the wounded area was covered by a chitosan membrane or, in an alternative experiment, a gel, having a diameter several millimeters larger than the injured area. An osmotic minipump (Alza 2001, volume about 220 μL; pumping rate about 1 μL/h; Alza Corp.; Palo Alto, Calif., USA; prefilled with a solution of the thrombin inhibitor melagatran, 2-100 μg/mL) was implanted subcutaneously, with the outlet of the pump kept open, delivering its content into the adjacent tissue. […]

[2] = Bleeding observations during inogatran minipump infusion; type: in vivo, rat; details: day 7
Source text: (§1) The serosal surfaces of the stomachs of adult, anaesthetised rats were exposed in an area 7 mm diameter to 80% acetic acid over 60 seconds and then rinsed with buffered saline.

[3] = Plasma concentration of inogatran during intraperitoneal minipump infusion; type: in vivo, rat; details: for Mean Plasma Conc.: two rats
[4] = as above; type: in vivo, rat
Source text: as §1

[5] = tested on: adhesions between injured area and adjacent muscles, muscle fascia, vessels, nerves and skin; assay: Surgical removal of thigh muscle fascia in rat: adhesions inspected after 10 days; type: in vivo; details: subcutaneous minipump 0.2×100μg/mL, versus untreated animals
Source text: An incision was made in the thigh through the skin into the muscle tissue in an anaesthetised adult rat, and the muscle fascia was surgically removed in a defined area (about 10×15 mm). The wound was sutured, and eventually opened for inspection after 10 days. Numerous adhesions were recognized, and the presence of granulation tissue were noticed to connect and lock the injured area to adjacent muscles, muscle fascia, vessels and nerves as well as to the skin.
An incision was made in the thigh through the skin into the muscle tissue in an anaesthetised adult rat and the muscle fascia was surgically removed in a defined area (about 10×15 mm). The muscle fascia was covered by a chitosan membrane or, in an alternative experiment, a gel, to which was connected a tube from an osmotic minipump, which had been implanted subcutaneously (Alza 2001, total volume about 220 μL; pumping rate about 1 μL/h; Alza Corp.; Palo Alto, Calif., USA; prefilled with a solution of the thrombin inhibitor melagatran, 0.2×100μg/mL). The wound was then sutured, and eventually opened and inspected after 10 days.

[6] = infusion rate 1*10 μL/h, 658 μg/h
[7] = infusion rate 2*10 μL/h, 1317 μg/h

Compound: hirudin
- fibrin network or strands of granulation tissue between the stomach and the liver, the intestines and the omentum ([1]; intraperitoneal minipump for a week, wound covered by hyaluronan or chitosan membrane, up to 10 days): No fibrin network or strands of granulation tissue could be detected

Compound: streptokinase: fibrinolytic agent, purchased from Sigma Chemical Co
- fibrin-platelet network or strands of granulation tissue between the stomach and the liver, the intestines and the omentum ([1]; intraperitoneal minipump, outlet connected to surface of chitosan membrane (or gel), up to 10 days): No fibrin-platelet network nor any strands of granulation tissue could be detected
- fibrin network or strands of newly formed granulation tissue connecting the stomach with the liver, the intestines and the omentum ([1]; minipump in abdominal cavity, outlet free and open, wound covered by chitosan membrane or gel, up to 10 days): No fibrin network, nor any strands of newly formed granulation tissue, could be detected

Compound: N=C(N)NCCCNC(=O)[C@@H]1CCCCN1C(=O)[C@@H](CC1CCCCC1)NCC(=O)O [inogatran, HOOC--CH2 --(R)Cha-Pic-Nag-H]
- bleeding observation [2, 6]: Minor Tendency to Bleed
- bleeding observation [2, 7]: Diffuse Bleeding
- Mean Plasma Conc. ([3]; infusion rate 1*1 μL/h, 66 μg/h, day 7): 180 nM
- Mean Plasma Conc. ([3]; infusion rate 1*10 μL/h, 658 μg/h, day 7): 1840 nM
- Plasma Conc. ([3]; infusion rate 2*1 μL/h, 132 μg/h (269 and 248 μg/kg/h), day 7): 240 nM and 370 nM
- Mean Plasma Conc. ([3]; infusion rate 2*1 μL/h, 132 μg/h, day 7): 310 nM
- Plasma Conc. ([3]; infusion rate 2*10 μL/h, 1317 μg/h (2761 μg/kg/h), day 1): 4440 nM
- Plasma Conc. ([3]; infusion rate 2*10 μL/h, 1317 μg/h (2761 μg/kg/h), day 2): 2820 nM
- Plasma Conc. ([3]; infusion rate 2*10 μL/h, 1317 μg/h (2761 μg/kg/h), day 7): 5560 nM
- Adherences score ([1]; infusion rate 1*1 μL/h, 66 μg/h): 3 and 4
- Adherences score [1, 6]: 0
- Adherences score ([1]; infusion rate 2*1 μL/h, 132 μg/h): 2
- Adherences score [1, 7]: 0
- formation of adhesions, dose dependence ([1]; intraperitoneal minipump(s) 65.86 μg/μL, 1 to 20 μL/h, for a week): prevented in a dose-response related manner
- Plasma Conc. ([4]; infusion rate 1*1 μL/h, 66 μg/h (124 and 142 μg/kg/h), day 1): 580 nM and 610 nM
- Plasma Conc. ([4]; infusion rate 1*1 μL/h, 66 μg/h (124 and 142 μg/kg/h), day 7): 170 nM and 190 nM
- Plasma Conc. ([4]; infusion rate 1*10 μL/h, 658 μg/h (1327 and 1351 μg/kg/h), day 7): 1880 nM and 1790 nM
- Plasma Conc. ([4]; infusion rate 2*1 μL/h, 132 μg/h (269 and 248 μg/kg/h), day 1): 470 nM and 460 nM
- Plasma Conc. ([4]; infusion rate 4*1 μL/h, 264 μg/h (588 and 558 μg/kg/h), day 1): 1270 nM and 810 nM
- Plasma Conc. ([4]; infusion rate 4*1 μL/h, 264 μg/h (588 and 558 μg/kg/h), day 2): 470 nM and 890 nM
- Plasma Conc. ([4]; infusion rate 4*1 μL/h, 264 μg/h (588 and 558 μg/kg/h), day 7): 570 nM and 870 nM
- Mean Plasma Conc. ([4]; infusion rate 4*1 μL/h, 264 μg/h, two rats, day 7): 720 nM

Compound: N=C(N)c1ccc(CNC(=O)[C@@H]2CCN2C(=O)[C@H](NCC(=O)O)C2CCCCC2)cc1 [melagatran, HOOC--CH2 --(R)Cgl-Aze-Pab-H]
- severity and dimensions of the adhesions formed between adjacent structures ([5]; tube connected to chitosan membrane or gel over the muscle fascia): strikingly reduced
- granulation tissue connecting and locking the injured area to adjacent structures ([5]; tube connected to chitosan membrane or gel): largely not connecting
- bridging tissue (adhesions) between the stomach and the liver, the intestines and the omentum ([1]; 100 μL of 100-500 μg/mL solution dripped daily onto chitosan membrane or gel, after 2 to 5 days): absolutely no bridging tissue
- fibrin network or strands of granulation tissue between the stomach and the liver, the intestines and the omentum ([1]; intraperitoneal minipump 2-100 μg/mL, outlet connected to chitosan membrane or gel, up to 10 days): No fibrin network or strands of granulation tissue could be detected
- fibrin network or strands of granulation tissue between the stomach and the liver, the intestines and the omentum ([1]; intraperitoneal minipump 2-100 μg/mL, outlet open into abdominal cavity, wound covered by chitosan membrane or gel, up to 10 days): No fibrin network, nor any strands of granulation tissue, could be detected
- adhesions between the stomach and the liver, the intestines and the omentum ([1]; minipump in peritoneal cavity, 2-100 μg/mL, about 1 μL/h, no polysaccharide, up to 10 days): only scattered, delicate adhesions
- fibrin network or strands of granulation tissue between the stomach and the liver, the intestines and the omentum ([1]; subcutaneous minipump 2-100 μg/mL, outlet open, wound covered by chitosan membrane or gel, up to 14 days): No fibrin network, nor any strands of granulation tissue, could be detected

Reference: patent publication US6174855A, “Pharmaceutical compositions comprising thrombin inhibitors and their use in the control of wound healing processes” (AstraZeneca AB, priority 1996, dated 2001)
